Measured values: article PMC11555678, “Improved Broad Spectrum Antifungal Drug Synergies with Cryptomycin, a Cdc50-Inspired Antifungal Peptide” (ACS Infectious Diseases, 2024)
Converted amounts (≈) assume the structure as drawn. Read-outs that look alike come from different tables or passages of the source.

Columns and labels:
C. auris B11245 = format: cell-based, Candida auris; settings: RPMI1640, 37 °C, 48 h, CAS: paradoxical growth; for MIC of antifungal in combination with KKOO: MIC = <20% growth; for MIC of antifungal in combination with KKOO-NH2: MIC = well with <20% growth
Procedure, shortened: (§1)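 Broth microdilution followed CLSI M27 (yeasts) or M38 (filamentous fungi) in RPMI1640, with 2-fold serial dilution, inoculum 5000 cfu/mL and 2 days at 37 °C. For synergy, medium carried the peptide at fixed final concentration and FIC index was calculated; the higher MIC of duplicates was reported.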

Cn MRL862 = format: cell-based, Cryptococcus neoformans; settings: RPMI1640, 37 °C, 48 h
Procedure, shortened: as §1

C. albicans SC5413 [1] = experiment: microbe, parasite or virus in culture; format: cell-based, Candida albicans; settings: Candida albicans, SC5413; compound alone; RPMI1640, 37 °C, 48 h; read-out: MIC
Procedure, shortened: (§2)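 Broth microdilution per CLSI M27 in RPMI1640, compounds serially diluted 2-fold from DMSO stock. Overnight YPD cultures washed, resuspended and adjusted to 5000 cfu/mL in RPMI as inoculum. Plates incubated 2 days at 37 °C.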

Cg FKS2 S663P = experiment: Drug synergy (MIC in peptide-supplemented media); format: cell-based, Candida glabrata; settings: RPMI1640, 37 °C, 48 h
Procedure, shortened: as §1

Cg FKS1 S629P = experiment: Drug synergy (MIC in peptide-supplemented media); format: cell-based, Candida glabrata; settings: RPMI1640, 37 °C, 48 h
Procedure, shortened: as §1

C. albicans SC5413 [2] = format: cell-based, Candida albicans; settings: RPMI1640, 37 °C, 48 h; for MIC of antifungal in combination with KKOO: azole MICs unclear (intermediate phenotype); for MIC of antifungal in combination with KKOO-NH2: azole MICs could not be determined (intermediate phenotype)
Procedure, shortened: as §1

C. neoformans Crm1^OE = experiment: microbe, parasite or virus in culture; format: cell-based, Cryptococcus neoformans; settings: Cryptococcus neoformans, 48 h
Procedure, shortened: as §2

C. neoformans apt2Δ = experiment: microbe, parasite or virus in culture; format: cell-based, Cryptococcus neoformans; settings: Cryptococcus neoformans, 48 h
Procedure, shortened: as §2

C. neoformans H99 = experiment: microbe, parasite or virus in culture; format: cell-based, Cryptococcus neoformans; settings: Cryptococcus neoformans, H99, 48 h
Procedure, shortened: as §2

C. neoformans cdc50Δ = experiment: microbe, parasite or virus in culture; format: cell-based, Cryptococcus neoformans; settings: Cryptococcus neoformans, 48 h
Procedure, shortened: as §2

C. neoformans apt1Δ = experiment: microbe, parasite or virus in culture; format: cell-based, Cryptococcus neoformans; settings: Cryptococcus neoformans, 48 h
Procedure, shortened: as §2

C. neoformans apt3Δ = experiment: microbe, parasite or virus in culture; format: cell-based, Cryptococcus neoformans; settings: Cryptococcus neoformans, 48 h
Procedure, shortened: as §2

C. neoformans crm1Δ = experiment: microbe, parasite or virus in culture; format: cell-based, Cryptococcus neoformans; settings: Cryptococcus neoformans, 48 h
Procedure, shortened: as §2

C. neoformans apt4Δ = experiment: microbe, parasite or virus in culture; format: cell-based, Cryptococcus neoformans; settings: Cryptococcus neoformans, 48 h
Procedure, shortened: as §2

C. neoformans MRL862 = experiment: microbe, parasite or virus in culture; format: cell-based, Cryptococcus neoformans; settings: Cryptococcus neoformans, MRL862; compound alone; RPMI1640, 37 °C, 48 h; read-out: MIC
Procedure, shortened: as §2

A. fumigatus AF293 [3] = experiment: microbe, parasite or virus in culture; format: cell-based, Aspergillus fumigatus; settings: Aspergillus fumigatus, AF293, 48 h
C. glabrata 2001 = format: cell-based, Candida glabrata; settings: RPMI1640, 37 °C, 48 h
Procedure, shortened: as §1

A. fumigatus AF293 [4] = experiment: Drug synergy (MIC in peptide-supplemented media); format: cell-based, Aspergillus fumigatus; settings: RPMI1640, 37 °C, 48 h, CAS: paradoxical growth; for MIC of antifungal in combination with KKOO: MIC = <20% growth; for MIC of antifungal in combination with KKOO-NH2: MIC = well with <20% growth
Procedure, shortened: as §1

CCC(C)n1ncn(-c2ccc(N3CCN(c4ccc(OCC5COC(Cn6cncn6)(c6ccc(Cl)cc6Cl)O5)cc4)CC3)cc2)c1=O (stereo not shown) [ITR, itraconazole]
MIC of antifungal in combination with KKOO (C. auris B11245; +0 μg/mL KKOO (control)): 0.5 µg/mL | MIC of antifungal in combination with KKOO-NH2 (C. auris B11245; +0 μg/mL KKOO-NH2 (control)): 0.5 µg/mL | MIC of antifungal in combination with KKOO-NH2 (C. auris B11245; +1 μg/mL KKOO-NH2): 0.125 µg/mL | MIC of antifungal in combination with KKOO (C. auris B11245; +1 μg/mL KKOO): 0.25 µg/mL | MIC of antifungal in combination with KKOO-NH2 (C. auris B11245; +2 μg/mL KKOO-NH2): 0.062 µg/mL | MIC of antifungal in combination with KKOO (C. auris B11245; +2 μg/mL KKOO): 0.062 µg/mL | MIC of antifungal in combination with KKOO-NH2 (C. auris B11245; +4 μg/mL KKOO-NH2): 0.016 µg/mL | MIC of antifungal in combination with KKOO (C. auris B11245; +4 μg/mL KKOO): 0.031 µg/mL | MIC of antifungal in combination with KKOO (Cn MRL862; +0 μg/mL KKOO (control)): 0.062 µg/mL | MIC of antifungal in combination with KKOO-NH2 (Cn MRL862; +0 μg/mL KKOO-NH2 (control)): 0.062 µg/mL | MIC of antifungal in combination with KKOO-NH2 (Cn MRL862; +1 μg/mL KKOO-NH2): 0.062 µg/mL | MIC of antifungal in combination with KKOO (Cn MRL862; +1 μg/mL KKOO): 0.031 µg/mL | MIC of antifungal in combination with KKOO-NH2 (Cn MRL862; +2 μg/mL KKOO-NH2): 0.016 µg/mL | MIC of antifungal in combination with KKOO (Cn MRL862; +2 μg/mL KKOO): 0.016 µg/mL | MIC of antifungal in combination with KKOO-NH2 (Cn MRL862; +4 μg/mL KKOO-NH2): 0.004 µg/mL | MIC of antifungal in combination with KKOO (Cn MRL862; +4 μg/mL KKOO): 0.556 µg/mL | MIC (C. albicans SC5413 [1]): > 1 µg/mL | MIC of antifungal in combination with KKOO (Cg FKS2 S663P; +0 μg/mL KKOO (control)): 0.031 µg/mL | MIC of antifungal in combination with KKOO-NH2 (Cg FKS2 S663P; +0 μg/mL KKOO-NH2 (control)): 0.031 µg/mL | MIC of antifungal in combination with KKOO-NH2 (Cg FKS2 S663P; +1 μg/mL KKOO-NH2): 0.016 µg/mL | MIC of antifungal in combination with KKOO (Cg FKS2 S663P; +1 μg/mL KKOO): 0.016 µg/mL | MIC of antifungal in combination with KKOO-NH2 (Cg FKS2 S663P; +2 μg/mL KKOO-NH2): 0.004 µg/mL | MIC of antifungal in combination with KKOO (Cg FKS2 S663P; +2 μg/mL KKOO): 0.016 µg/mL | MIC of antifungal in combination with KKOO-NH2 (Cg FKS2 S663P; +4 μg/mL KKOO-NH2): 0.002 µg/mL | MIC of antifungal in combination with KKOO (Cg FKS2 S663P; +4 μg/mL KKOO): 0.556 µg/mL | MIC of antifungal in combination with KKOO (Cg FKS1 S629P; +0 μg/mL KKOO (control)): 0.125 µg/mL | MIC of antifungal in combination with KKOO-NH2 (Cg FKS1 S629P; +0 μg/mL KKOO-NH2 (control)): 0.062 µg/mL | MIC of antifungal in combination with KKOO-NH2 (Cg FKS1 S629P; +1 μg/mL KKOO-NH2): 0.031 µg/mL | MIC of antifungal in combination with KKOO (Cg FKS1 S629P; +1 μg/mL KKOO): 0.062 µg/mL | MIC of antifungal in combination with KKOO-NH2 (Cg FKS1 S629P; +2 μg/mL KKOO-NH2): 0.016 µg/mL | MIC of antifungal in combination with KKOO (Cg FKS1 S629P; +2 μg/mL KKOO): 0.031 µg/mL | MIC of antifungal in combination with KKOO-NH2 (Cg FKS1 S629P; +4 μg/mL KKOO-NH2): 0.008 µg/mL | MIC of antifungal in combination with KKOO (Cg FKS1 S629P; +4 μg/mL KKOO): 0.016 µg/mL | MIC of antifungal in combination with KKOO (C. albicans SC5413 [2]; +0 μg/mL KKOO (control)): > 1 µg/mL | MIC of antifungal in combination with KKOO-NH2 (C. albicans SC5413 [2]; +0 μg/mL KKOO-NH2 (control)): >1 µg/mL | MIC of antifungal in combination with KKOO-NH2 (C. albicans SC5413 [2]; +1 μg/mL KKOO-NH2): >1 µg/mL | MIC of antifungal in combination with KKOO (C. albicans SC5413 [2]; +1 μg/mL KKOO): > 1 µg/mL | MIC of antifungal in combination with KKOO-NH2 (C. albicans SC5413 [2]; +2 μg/mL KKOO-NH2): >1 µg/mL | MIC of antifungal in combination with KKOO (C. albicans SC5413 [2]; +2 μg/mL KKOO): > 1 µg/mL | MIC of antifungal in combination with KKOO-NH2 (C. albicans SC5413 [2]; +4 μg/mL KKOO-NH2): >1 µg/mL | MIC of antifungal in combination with KKOO (C. albicans SC5413 [2]; +4 μg/mL KKOO): > 1 µg/mL | MIC of antifungal in combination with KKOO (C. albicans SC5413 [2]; +8 μg/mL KKOO): > 1 µg/mL | MIC (C. neoformans Crm1^OE): 0.016 µg/mL (≈ 0.0227 µM) | MIC (C. neoformans apt2Δ): 0.125 µg/mL (≈ 0.177 µM) | MIC (C. neoformans H99): 0.125 µg/mL (≈ 0.177 µM) | MIC (C. neoformans cdc50Δ): 0.002 µg/mL (≈ 0.00283 µM) | MIC (C. neoformans apt1Δ): 0.5 µg/mL (≈ 0.709 µM) | MIC (C. neoformans apt3Δ): 0.062 µg/mL (≈ 0.0879 µM) | MIC (C. neoformans crm1Δ): 0.062 µg/mL (≈ 0.0879 µM) | MIC (C. neoformans apt4Δ): 0.062 µg/mL (≈ 0.0879 µM) | MIC (C. neoformans MRL862): 0.031 µg/mL (≈ 0.0439 µM) | MIC (A. fumigatus AF293 [3]): 0.125 µg/mL (≈ 0.177 µM) | MIC of antifungal in combination with KKOO (C. glabrata 2001; +0 μg/mL KKOO (control)): 0.5 µg/mL | MIC of antifungal in combination with KKOO-NH2 (C. glabrata 2001; +0 μg/mL KKOO-NH2 (control)): 0.5 µg/mL | MIC of antifungal in combination with KKOO-NH2 (C. glabrata 2001; +1 μg/mL KKOO-NH2): 0.25 µg/mL | MIC of antifungal in combination with KKOO (C. glabrata 2001; +1 μg/mL KKOO): 0.25 µg/mL | MIC of antifungal in combination with KKOO-NH2 (C. glabrata 2001; +2 μg/mL KKOO-NH2): 0.125 µg/mL | MIC of antifungal in combination with KKOO (C. glabrata 2001; +2 μg/mL KKOO): 0.125 µg/mL | MIC of antifungal in combination with KKOO-NH2 (C. glabrata 2001; +4 μg/mL KKOO-NH2): 0.031 µg/mL | MIC of antifungal in combination with KKOO (C. glabrata 2001; +4 μg/mL KKOO): 0.062 µg/mL | MIC of antifungal in combination with KKOO (C. glabrata 2001; +8 μg/mL KKOO): 0.062 µg/mL | MIC of antifungal in combination with KKOO (A. fumigatus AF293 [4]; +0 μg/mL KKOO (control)): 0.125 µg/mL | MIC of antifungal in combination with KKOO-NH2 (A. fumigatus AF293 [4]; +0 μg/mL KKOO-NH2 (control)): 0.125 µg/mL | MIC of antifungal in combination with KKOO-NH2 (A. fumigatus AF293 [4]; +1 μg/mL KKOO-NH2): 0.125 µg/mL | MIC of antifungal in combination with KKOO (A. fumigatus AF293 [4]; +1 μg/mL KKOO): 0.125 µg/mL | MIC of antifungal in combination with KKOO-NH2 (A. fumigatus AF293 [4]; +2 μg/mL KKOO-NH2): 0.062 µg/mL | MIC of antifungal in combination with KKOO (A. fumigatus AF293 [4]; +2 μg/mL KKOO): 0.062 µg/mL | MIC of antifungal in combination with KKOO-NH2 (A. fumigatus AF293 [4]; +4 μg/mL KKOO-NH2): 0.062 µg/mL | MIC of antifungal in combination with KKOO (A. fumigatus AF293 [4]; +4 μg/mL KKOO): 0.062 µg/mL | MIC of antifungal in combination with KKOO-NH2 (A. fumigatus AF293 [4]; +8 μg/mL KKOO-NH2): 0.031 µg/mL
